In one series the test system is human forearm skin. Description: Inhibition of skin irritation induced by 24-hour occlusion with benzalkonium chloride. The following applies: 0.01% (100 micrograms/milliliter) co-administered with 0.4% benzalkonium chloride, volar forearm, FIG. 5. It counts as in vivo. The text has this:
The anti-irritant activity of purified Tasselin A has been assessed by determining its ability to inhibit skin irritation induced by 24-hour occlusion of human forearm skin with a solution of 0.4% benzalkonium chloride (BC) with or without inclusion of 0.01% (100 micrograms/milliliter) of purified Tasselin A. FIG. 5 is a photograph of the volar surface of a subject forearm immediately after removal of the occlusive dressing. There are two circled skin areas: A) control site, and B) test site.

The nature of series [1]: Storage stability of lyophilized powder. It is filed as physicochemical. The following applies: milligram quantities, under vacuum. An excerpt:
Given these physical properties, Tasselin A has been formulated in both lotion and cream as described in the Tables III, IV, and V below.

For series [2], the system named is mushroom tyrosinase enzyme. Put plainly: Anti-tyrosinase activity assay. It is filed as biochemical. The following applies: 150 microgram/ml, 30 minute test end-point; FIG. 7. On the procedure:
For this purpose, a modified assay method of anti-tyrosinase activity described in the literature was employed (Chang T S and Tseng M J., Mar. Sci. Technol., 14: 190-193, 2006). The assay employs mushroom tyrosinase enzyme to enzymatically convert a colorless solution tyrosine to a black melanin product. The anti-tyrosinase activity is measured by the reduction of black color development in the presence of the inhibitor, which in this instance is Tasselin A. FIG. 7 is a graph showing the inhibiting effect of two different concentrations of purified Tasselin A on tyrosinase activity as 50% reduction at a concentration of 150 microgram/ml over the 30 minute test end-point.

Another series can be described thus: Solubility. It is filed as physicochemical. The following applies: water, methanol/ethanol. An excerpt:
There is also disclosed here a method of making a cosmetic ingredient with the chemical composition and structure of 4-hydroxy-oxindole-3-acetic acid. The chemical compound was identified in extracts of corn tassels. In particular, seasonally aromatic corn tassels were harvested as previously described in U.S. Pat. No. 7,399,493 with particular attention to harvesting the tassel at the peak time of aroma production. They were collected simply by shaking the tassels directly into collecting sacks conveyed to the laboratory where they are immersed directly into ice-cold absolute alcohol and extracted for 24-48 hours at 0-4° C. Crude alcohol extracts have a light green color and a fragrance reminiscent of bee's wax. The extract is further clarified low speed centrifugation followed by filtration through a 0.4 micron nitrocellulose filter and the resulting sterile solution stored at −20° C. until further needed or then concentrated by vacuum rotary evaporation to obtain a slightly viscous mass. This material served as the starting point for chemical analysis. Dilutions of the ice-cold crude extract was submitted to preliminary assessment of its anti-oxidant activity. High pressure liquid chromatography (HPLC) was employed to determine the principle phenolic components of the tassel extract. […]

Series [3] is described as follows: DPPH* free-radical scavenging assay. The following applies: 100 microgram per milliliter in ethanol; FIG. 4. On the procedure: Purified Tasselin A has been assayed and determined its free-radical scavenging activity. FIG. 4 present typical results of standardized 1,1-diphenyl-2-picrylhydrazyl radical (DPPH*) reagent test as previously described (Bonina et al, 2002). This test was previously disclosed and employed on crude corn tassel alcoholic extracts (Wille J J: U.S. Pat. No. 7,399,439). Here we confirm that purified Tasselin A has potent antioxidant activity. A 1.0 mg/ml stock solution of purified Tasselin A in ethanol was diluted with anhydrous ethanol to a final concentration of 100 microgram per milliliter and assayed in the DPPH* free-radical scavenging assay.
For orientation: Loss of DPPH colour is used to gauge radical scavenging.

On to `O=C(O)CC1C(=O)Nc2cccc(O)c21` (centres unmarked) [Tasselin A, 2,3-dihydro-4-hydroxy-2-oxo-1H-indole-3-acetic acid], for which, in the series on human forearm skin, the “visual scoring of skin irritation (swelling, erythema) at test site” value is given as “no swelling or redness”. Besides, the “storage as dry powder” value in series [1] is “successfully lyophilized and stored as a dry powder under vacuum for up to a year”. Further, in series [2], the “reduction of tyrosinase activity” value came out at 50%. In “Solubility”, the solubility result was “both water and methanol/ethanol soluble”. Further, the “reduction in absorbance measured at 595 nm” value in series [3] is listed as 40%.
